# Source: patent publication US5000966A, “Quality improvement of alcoholic liquors by enzymatic decomposing of ethyl carbamate” (Takeda Chemical Industries, Ltd., priority 1987, dated 1991)
# Test system: Candida krusoides ATCC 7345 enzyme capable of decomposing ethyl carbamate (partially purified crude enzyme of Example 5)
# Experiment: Km of the ethyl carbamate-decomposing enzyme (ammonia formation, nitroprusside method)
# Format: biochemical
# Settings: pH 4, 0.2M citrate buffer; substrate not given, taken as ethyl carbamate
# Experimental: The activity of decomposing ethyl carbamate in the culture broth or its processed matter was determined colorimetrically by the nitroprusside method on ammonia produced by the reaction at 30° C. for 30 minutes of the mixture of a volume of a suspension of the cells in sterilized deionized water collected by centrifugation of the culture which had been diluted appropriately, […] The amount of enzyme to produce one micromole of ammonia per unit time (one minute) is expressed as 1 unit (1U). Candida krusoides ATCC 7345 was cultivated in the same manner as described in Example 1 to give 2 l of a culture broth having an activity of 0.007 U/ml for decomposing ethyl carbamate. The cells were collected from the culture broth by centrifugation, washed with 0.05M phosphate buffer (pH 7.2) twice, suspended in a solution containing 1 mM of EDTA and 1 mM of dithiothreitol, broken down by treating with a cell mill containing glass beads having 0.1-0.2 mm in diameter and were treated at 4500 rpm for 20 minutes The treated product was centrifuged and to the supernatant was added ammonium sulfate so that the concentration comes to 90%. […]
smiles,measurement,value
CCOC(N)=O [ethyl carbamate],Km,65 mM
